PubChem BioAssay (NCI)
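A five-concentration, 48-hour dose response in 96-well plates underlies each endpoint, interpolated linearly between surrounding concentrations. GI50 marks 50% less growth. TGI: total growth inhibition.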

What was measured:
Experiment in all cases: NCI-60 cell line screen, 48 h
[1] = tested on: 786-0 renal
[2] = tested on: A498 renal
[3] = tested on: A549 NSCLC
[4] = tested on: ACHN renal
[5] = tested on: BT-549 breast
[6] = tested on: CAKI-1 renal
[7] = tested on: CCRF-CEM leukemia
[8] = tested on: COLO 205 colon
[9] = tested on: DU-145 prostate
[10] = tested on: EKVX NSCLC
[11] = tested on: HCC-2998 colon
[12] = tested on: HCT-116 colon
[13] = tested on: HCT-15 colon
[14] = tested on: HL-60(TB) leukemia
[15] = tested on: HOP-62 NSCLC
[16] = tested on: HOP-92 NSCLC
[17] = tested on: HS 578T breast
[18] = tested on: HT29 colon
[19] = tested on: IGROV1 ovarian
[20] = tested on: K-562 leukemia
[21] = tested on: KM12 colon
[22] = tested on: LOX IMVI melanoma
[23] = tested on: M14 melanoma
[24] = tested on: MALME-3M melanoma
[25] = tested on: MCF7 breast
[26] = tested on: MDA-MB-231 breast
[27] = tested on: MDA-MB-435
[28] = tested on: MOLT-4 leukemia
[29] = tested on: NCI-H226 lung
[30] = tested on: NCI-H23 lung
[31] = tested on: NCI-H460 lung
[32] = tested on: NCI-H522 lung
[33] = tested on: NCI/ADR-RES ovarian
[34] = tested on: OVCAR-3 ovarian
[35] = tested on: OVCAR-4 ovarian
[36] = tested on: OVCAR-5 ovarian
[37] = tested on: OVCAR-8 ovarian
[38] = tested on: PC-3 prostate
[39] = tested on: RPMI-8226 leukemia
[40] = tested on: RXF 393 renal
[41] = tested on: SF-268 CNS
[42] = tested on: SF-295 CNS
[43] = tested on: SF-539 CNS
[44] = tested on: SK-MEL-2 melanoma
[45] = tested on: SK-MEL-28 melanoma
[46] = tested on: SK-MEL-5 melanoma
[47] = tested on: SK-OV-3 ovarian
[48] = tested on: SN12C renal
[49] = tested on: SNB-19 CNS
[50] = tested on: SNB-75 CNS
[51] = tested on: SR leukemia
[52] = tested on: SW-620 colon
[53] = tested on: T-47D breast
[54] = tested on: TK-10 renal
[55] = tested on: U251 CNS
[56] = tested on: UACC-257 melanoma
[57] = tested on: UACC-62 melanoma
[58] = tested on: UO-31 renal

SMILES: COC1(C(=O)N2Cc3nc(Cl)nc(N[C@H](C)c4cc(N)cc(C(F)(F)F)c4)c3C2)CCOCC1
- GI50 [1]: 18.7 µM
- TGI [1]: 68.4 µM
- GI50 [2]: 11.2 µM
- TGI [2]: 58.6 µM
- GI50 [3]: 21.1 µM
- TGI [3]: > 100 µM
- GI50 [4]: 18.5 µM
- TGI [4]: 71.4 µM
- GI50 [5]: 12.4 µM
- TGI [5]: 28.2 µM
- GI50 [6]: 25.4 µM
- TGI [6]: > 100 µM
- GI50 [7]: 31.3 µM
- TGI [7]: 99 µM
- GI50 [8]: 18 µM
- TGI [8]: 33.8 µM
- GI50 [9]: 31.7 µM
- TGI [9]: > 100 µM
- GI50 [10]: 14.1 µM
- TGI [10]: > 100 µM
- GI50 [11]: 20.8 µM
- TGI [11]: 59.2 µM
- GI50 [12]: 15.2 µM
- TGI [12]: 30.4 µM
- GI50 [13]: 23.2 µM
- TGI [13]: > 76.3 µM
- GI50 [14]: 22.6 µM
- TGI [14]: 66.4 µM
- GI50 [15]: 15.2 µM
- TGI [15]: 36 µM
- GI50 [16]: 0.356 µM
- TGI [16]: 21 µM
- GI50 [17]: 17.7 µM
- TGI [17]: 80.3 µM
- GI50 [18]: 18 µM
- TGI [18]: 36.6 µM
- GI50 [19]: 13.5 µM
- TGI [19]: 43.8 µM
- GI50 [20]: 0.888 µM
- TGI [20]: > 68.4 µM
- GI50 [21]: 13.6 µM
- TGI [21]: 54.3 µM
- GI50 [22]: 15.6 µM
- TGI [22]: 29.2 µM
- GI50 [23]: 17.8 µM
- TGI [23]: 40.6 µM
- GI50 [24]: 17.3 µM
- TGI [24]: 43 µM
- GI50 [25]: 17.5 µM
- TGI [25]: 49.3 µM
- GI50 [26]: 15.9 µM
- TGI [26]: 31.3 µM
- GI50 [27]: 18.6 µM
- TGI [27]: 41.4 µM
- GI50 [28]: 9.05 µM
- TGI [28]: 50.5 µM
- GI50 [29]: 18.2 µM
- TGI [29]: 72.2 µM
- GI50 [30]: 19.7 µM
- TGI [30]: 72.4 µM
- GI50 [31]: 18.7 µM
- TGI [31]: 40.9 µM
- GI50 [32]: 9.23 µM
- TGI [32]: 55.2 µM
- GI50 [33]: 24.6 µM
- TGI [33]: > 94.5 µM
- GI50 [34]: 16.3 µM
- TGI [34]: 49 µM
- GI50 [35]: 19.8 µM
- TGI [35]: 99.2 µM
- GI50 [36]: 18.2 µM
- TGI [36]: 58 µM
- GI50 [37]: 23.1 µM
- TGI [37]: > 88.5 µM
- GI50 [38]: 21.3 µM
- TGI [38]: > 91.8 µM
- GI50 [39]: 22.2 µM
- TGI [39]: > 83.2 µM
- GI50 [40]: 15.8 µM
- TGI [40]: 43.6 µM
- GI50 [41]: 13.7 µM
- TGI [41]: 49.1 µM
- GI50 [42]: 12.5 µM
- TGI [42]: 26.2 µM
- GI50 [43]: 15.2 µM
- TGI [43]: 29.8 µM
- GI50 [44]: 16.7 µM
- TGI [44]: 33.6 µM
- GI50 [45]: 16.2 µM
- TGI [45]: 30.9 µM
- GI50 [46]: 14.8 µM
- TGI [46]: 28.1 µM
- GI50 [47]: 17.7 µM
- TGI [47]: 58.5 µM
- GI50 [48]: 12.4 µM
- TGI [48]: 53.4 µM
- GI50 [49]: 14.5 µM
- TGI [49]: 72 µM
- GI50 [50]: 17.4 µM
- TGI [50]: 62.9 µM
- GI50 [51]: 2.92 µM
- TGI [51]: 48.8 µM
- GI50 [52]: 24.8 µM
- TGI [52]: > 86.3 µM
- GI50 [53]: 20.8 µM
- TGI [53]: 83.5 µM
- GI50 [54]: 1.23 µM
- TGI [54]: 45.8 µM
- GI50 [55]: 14.4 µM
- TGI [55]: 37.7 µM
- GI50 [56]: 17.2 µM
- TGI [56]: 37.3 µM
- GI50 [57]: 13.8 µM
- TGI [57]: 27.7 µM
- GI50 [58]: 7.63 µM
- TGI [58]: 43.3 µM
